{"source": "patent US11559527B2", "about": "(priority 2017, dated 2023)", "type_in_all_cases": "cell-based, Human", "key": {"MCF7 cells [1]": {"tested_on": "MCF7 cells", "test": "Mitochondrial mass quantification by flow cytometry (MitoTracker Deep Red)", "settings": "50 μM, 5 days, relative to vehicle", "description": "In order to assess whether the inhibition of DRP1 was actually being translated into a reduction in mitochondrial fission, the inventors stained the mitochondria of MCF7 cells with Mitotracker Deep Red, which is a marker of mitochondrial mass. […] The original images are black background with shades of red over the cells, whereas the images in FIG. 3 have been color-inverted and generated in grey scale. Mitochondrial mass was also quantified by flow cytometry. FIGS. 4A-4C show results of mitochondrial mass quantification. In FIG. 4A, Mitotracker Deep Red mean intensity relative to vehicle intensity is shown for 2-day and 5-day treatments.\nMITOCHONDRIAL MASS QUANTIFICATION: To measure mitochondrial mass, cells were stained with MitoTracker Deep Red (M22426, Invitrogen). Briefly, 2×10^5 […] cells per well were seeded in 6-well plates. […] Cells were then incubated for 15 min at 37° C. with the 10 nM Mitotracker Deep Red probe diluted in PBS (D8662, Sigma). All subsequent steps were performed in the dark. Cells were washed in PBS, harvested, and resuspended in PBS. Mitotracker signal was quantified as mean fluorescent intensity of the viable cell population in a Fortessa flow cytometer (BD Bioscience). Results were analyzed using FlowJo software."}, "MCF7 cells [2]": {"tested_on": "MCF7 cells", "test": "Reactive oxygen species (CM-H2DCFDA, flow cytometry)", "description": "Inhibition of the mitochondrial fission impacts on other mitochondrial processes, such as mitochondrial metabolism and general and mitochondrial oxidative stress. To confirm, MCF7 cells were stained with MitoSOX and CM-H2DCFDA, and mitochondrial superoxide and total ROS were quantified by flow cytometry. […] Whereas the increase in general ROS goes in line with the increase in mitochondrial content, the boost in the levels of mitochondrial superoxide in mDIV1-treated cells is actually bigger than the observed increased mitochondrial content.\nLEVELS OF REACTIVE OXYGEN SPECIES AND MITOCHONDRIAL SUPEROXIDE: For both assays, 2×10^5 MCF7 cells were seeded in 35 mm plates. […] Reactive oxygen species (ROS) production was measured using CM-H2DCFDA (C6827, Invitrogen). Briefly, cells were incubated for 20 minutes at 37° C. with 1 μM CM-H2DCFDA diluted in PBS and then placed in complete media for 20 minutes at 37° C. in the dark, to render the dye fluorescent, according to the manufacturer. Mitochondrial superoxide was measured using MitoSOX Red Mitochondrial Superoxide Indicator (M36008, ThermoFisher Scientific). […] ROS signal and MitoSOX signal was quantified as mean fluorescent intensity of the viable cell population in a Fortessa flow cytometer (BD Bioscience). Results were analysed using FlowJo software."}, "TGFβ signaling": {"tested_on": "TGFβ signaling", "test": "Luciferase reporter assay MCF7-GFP-SMAD(luc)", "settings": "50 μM, 2 and 5 days", "description": "Mitochondrial fusion and fission may also have an impact in signaling pathways that regulate stem cell proliferation and survival. […] A range of reporter MCF7-GFP cell lines were generated, including MCF7-GFP-GLI(luc), MCF7-GFP-Rbp/Jk(luc), MCF7-GFP-SMAD(luc) and MCF7-GFP-TCF/LEF(luc), to assess Hedgehog signaling, Notch signaling, TGFβ signaling, and Wnt signaling, respectively. […] The data is shown in the four data plots in FIG. 9.\nLUCIFERASE ASSAY: The Cignal Lenti reporter assay (luc) was used to monitor the activity of several signalling pathways in MCF7-GFP cells as explained previously. Luciferase Assay System (E1501, Promega) was performed according to manufacturer's instructions. 1×10^4 MCF7 […] were seeded in black-walled 96 well plates. When cells were attached, drug treatments were added for 18, 48 hours and 5 days. After treatment, Luciferase Assay was performed according to manufacturer's instructions and light signal was acquired in the Xenogen VivoVision IVIS Lumina. Results were normalized by SRB staining of cells grown in 96-well plates in parallel.\nSULFORHODAMINE B (SRB) ASSAY: SRB (S9012, Sigma) measures total biomass by staining cellular proteins. […] Absorbance was spectrophotometrically measured at 562 nm in a FluoStar Omega plate reader (BMG Labtech). […]"}, "MCF7 cells [3]": {"tested_on": "MCF7 cells", "test": "DAPI staining (viable cells in suspension; binucleated cells)", "description": "The second chart in FIG. 10B sets forth the results. […] One possible explanation to that observed behavior is that they are becoming more quiescent. […] Such phenomenon is typical of anti-mitotic drugs.\nThe surviving fraction after 2 days and 5 days of growth was analyzed by FACS. MCF7 cells were either trypsinised or spun down and trypsinised and incubated with CD24 (IOTest CD24-PE, Beckman Coulter) and CD44 (APC mouse anti-human CD44, 559942, BD Pharmingen) for 15 minutes on ice. Cells were then rinsed twice in PBS, spun down, and resuspended with DAPI dye (D1306, Molecular probes) at 3 μM in PBS for 10 minutes. Samples were then analyzed by FACS (Fortessa, BD Bioscence). Only the live cell population, identified using the DAPI staining, was analyzed for CD24/CD44 expression. Data were analyzed using FlowJo software."}}, "data": [{"smiles": "COc1cc(-n2c(S)nc3ccccc3c2=O)c(Cl)cc1Cl", "note": "[mDIVI-1, 3-(2,4-Dichloro-5-methoxyphenyl)-2-sulfanyl-4(3H)-quinazolinone]", "values": [{"measurement": "Mitotracker Deep Red mean fluorescence intensity (mitochondrial mass)", "setting": "MCF7 cells [1]", "value": "significantly higher"}, {"measurement": "production of total ROS", "setting": "MCF7 cells [2]; 5 days of treatment", "value": "slight trend toward an increase"}, {"measurement": "general oxidative stress levels", "setting": "MCF7 cells [2]; after exposure to mDIVI-1", "value": "did not change"}, {"measurement": "TGFβ/SMAD pathway luciferase activity", "setting": "TGFβ signaling", "value": "inhibition"}, {"measurement": "binucleated cells (failure of cytokinesis)", "setting": "MCF7 cells [3]; 50 μM, data not shown", "value": "increase"}, {"measurement": "cell viability (DAPI) vs vehicle-treated cells", "setting": "MCF7 cells [3]; anchorage-independent conditions", "value": "no significant differences"}]}]}
